Results from PubChem BioAssay (NCI).
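The concentration for 50% growth inhibition is given as GI50. TGI: concentration producing complete growth inhibition.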

Tests used:
Assay in all cases: NCI-60 cell line screen, 384-well format
[1] = tested on: K-562 leukemia
[2] = tested on: NCI/ADR-RES ovarian
[3] = tested on: SNB-19 CNS
[4] = tested on: OVCAR-5 ovarian
[5] = tested on: 786-0 renal
[6] = tested on: CAKI-1 renal
[7] = tested on: ACHN renal
[8] = tested on: COLO 205 colon
[9] = tested on: RXF 393 renal
[10] = tested on: OVCAR-8 ovarian
[11] = tested on: MDA-MB-435 melanoma
[12] = tested on: UO-31 renal
[13] = tested on: KM12 colon

**Q.** With `N#Cc1cnc(Nc2cc(NC[C@H]3CNCCO3)c(C(F)(F)F)cn2)cn1` as the compound, how does the GI50 [1] read?
**A.** Its GI50 is 580 nM.

**Q.** What about the TGI [1] of the same compound?
**A.** Its TGI is 2230 nM.

**Q.** What about the GI50 [2] of the same compound?
**A.** Its GI50 is 963 nM.

**Q.** What about the TGI [2] of the same compound?
**A.** The TGI was 2910 nM.

**Q.** What about the GI50 [3] of the same compound?
**A.** Its GI50 is 9810 nM.

**Q.** And the TGI [3]?
**A.** Its TGI is 62700 nM.

**Q.** What about the GI50 [4] of the same compound?
**A.** Its GI50 is 17100 nM.

**Q.** What about the TGI [4] of the same compound?
**A.** Its TGI is 43900 nM.

**Q.** And the GI50 [5]?
**A.** The GI50 was 1590 nM.

**Q.** And the TGI [5]?
**A.** The TGI was 15200 nM.

**Q.** What about the GI50 [6] of the same compound?
**A.** The GI50 was 12200 nM.

**Q.** And the TGI [6]?
**A.** Its TGI is 53800 nM.

**Q.** What about the GI50 [7] of the same compound?
**A.** The GI50 was 305 nM.

**Q.** What about the TGI [7] of the same compound?
**A.** The TGI was 1220 nM.

**Q.** What about the GI50 [8] of the same compound?
**A.** The GI50 was 15300 nM.

**Q.** And the TGI [8]?
**A.** Its TGI is 34400 nM.

**Q.** And the GI50 [9]?
**A.** Its GI50 is 272 nM.

**Q.** And the TGI [9]?
**A.** The TGI was 715 nM.

**Q.** What about the GI50 [10] of the same compound?
**A.** Its GI50 is 1660 nM.

**Q.** What about the TGI [10] of the same compound?
**A.** The TGI was 22200 nM.

**Q.** What about the GI50 [11] of the same compound?
**A.** Its GI50 is 1770 nM.

**Q.** What about the TGI [11] of the same compound?
**A.** Its TGI is 10500 nM.

**Q.** And the GI50 [12]?
**A.** Its GI50 is 588 nM.

**Q.** And the TGI [12]?
**A.** Its TGI is > 100000 nM.

**Q.** What about the GI50 [13] of the same compound?
**A.** The GI50 was 1670 nM.

**Q.** What about the TGI [13] of the same compound?
**A.** The TGI was 18000 nM.
